The values that follow come from patent publication US11326992B2 (priority 2016, dated 2022).

The structures appear in SMILES notation.

What is called pKa is the pH at which an ionisable group is half protonated.

For data set [1] the following is noted: morphine value marked (base); cited from earlier work.
The nature of data set [2]: Short term on-card stability. To be noted: day 28, stored in the presence of air (RT+Air and −20° C.+Air).
Data set [3] in a line: Blood:Plasma binding ratio of guanfacine test sample. In kind it is in vitro ADME. The note with it: whole blood sample; read-out: Blood:Plasma binding ratio (Ke/p). On the procedure:
The multilayer device of the invention was tested using a known hypertension and ADHD drug, guanfacine, with its [^13C, ^15N3] internal standard, Guanfacine (C9H9Cl2N3O) has a monoisotopic mass of 245.0123 Da, while the internal standard [^13C, ^15N3]-guanfacine (^13CC8H9Cl2^15N3O) has a monoisotopic mass of 249.0067 Da. These compounds were tested using a whole blood sample with a Blood:Plasma binding ratio (Ke/p) of 1.5 and analyzed using LC-MS/MS bioanalysis following the protocol described here.

[4] abbreviates: High QC 900 ng/mL, ANOVA p<0.0001.

Turning to `CNC(C)Cc1ccc2c(c1)OCO2` (centres unmarked) [MDMA, 3,4-methylenedioxymethamphetamine], in data set [1], the pKa is 9.9.

Consider `CC(C)(N)Cc1ccccc1` [Phentermine], for which the pKa in data set [1] is on record as 10.1. In the case of `CNC(C)Cc1ccccc1` (centres unmarked) [Methamphetamine], in data set [1], the pKa is 9.9. For the molecule `CNC(C)C(=O)c1ccc(C)cc1` (centres unmarked) [Mephedrone], in data set [1], the pKa was 9.0. Further, the on-card stability result in data set [2] (setting [4]) is “significant decompositions”; in data set [2] (LLOQ 5 ng/mL, ANOVA), “significant decomposition”. Consider `COc1ccc2c3c1O[C@H]1C(=O)CC[C@H]4[C@@H](C2)N(C)CC[C@]314` [Hydrocodone], for which the on-card stability result in data set [2] (setting [4]) is reported as “significant decompositions”; in data set [2] (LLOQ 5 ng/mL, ANOVA), “significant decomposition”. For `COc1ccc2c3c1O[C@H]1C(=O)CC[C@@]4(O)[C@@H](C2)N(C)CC[C@]314` [Oxycodone], in that order: “significant decompositions” and “significant decomposition”. As to `N=C(N)NC(=O)Cc1c(Cl)cccc1Cl` [guanfacine], the blood plasma ratio in data set [3] is 1.5.
